Measured values: ChEMBL document CHEMBL3745664, “Synthesis, biological evaluation and QSAR studies of diarylpentanoid analogues as potential nitric oxideinhibitors” (Medchemcomm, 2015)

Columns and labels:
RAW264.7 [1] = assay: Antiinflammatory activity in mouse RAW264.7 cells assessed as inhibition of LPS/IFN-gamma-stimulated nitric oxide production at 50 uM after 17 hrs by Griess assay; format: functional; details: RAW264.7, 17 h
RAW264.7 [2] = assay: Cytotoxicity against mouse RAW264.7 cells by MTT assay; format: cell-based
RAW264.7 [3] = assay: Antiinflammatory activity in mouse RAW264.7 cells assessed as inhibition of LPS/IFN-gamma-stimulated nitric oxide production after 17 hrs by Griess assay; format: functional, cell-based; details: RAW264.7, 17 h
[4] = Chemical stability of the compound in phosphate buffer at 20 uM at pH 12.7 at 25 degC by UV-visible spectrophotometric analysis; format: physicochemical; details: pH 12.7, 20 µM
[5] = Chemical stability of the compound in phosphate buffer at 20 uM at pH 2.4 at 25 degC by UV-visible spectrophotometric analysis; format: physicochemical; details: pH 2.4, 20 µM
[6] = Chemical stability of the compound in phosphate buffer at 20 uM at pH 7 at 25 degC by UV-visible spectrophotometric analysis; format: physicochemical; details: pH 7, 20 µM

Compound | IC50 (RAW264.7 [3]; read-out: IC50) [µM] | IC50 (RAW264.7 [3]; read-out: pIC50 (converted)) [µM] | Stability [4] | Stability [5] | Stability [6] | inhibition at 50 µM (RAW264.7 [1]) [%] | IC50 (RAW264.7 [2]) [µM]
O=C(/C=C/C=C/c1ccccc1)c1ccccc1 | 44.6 | 44.6 |  |  |  | 66.8 | 44.3
O=C(/C=C/C=C/c1ccccc1)c1cc(Cl)ccc1O |  |  |  |  |  | < 10 | 
COc1ccc(/C=C/C=C/C(=O)c2cc(Cl)ccc2O)cc1 |  |  |  |  |  | 26.4 | 
O=C(/C=C/C=C/c1ccc(Cl)cc1)c1cc(Cl)ccc1O |  |  |  |  |  | < 10 | 
O=C(/C=C/C=C/c1ccccc1)c1ccccc1O |  |  |  |  |  | < 10 | 
O=C(/C=C/C=C/c1ccccc1)c1ccc(F)cc1 |  |  |  |  |  | 33.1 | 
COc1cc(/C=C/C=C/C(=O)c2ccc(F)cc2)cc(OC)c1O | 39.3 | 39.3 |  |  |  | 76.7 | 5
O=C(/C=C/C=C/c1ccccc1)c1cccc(O)c1 | 26.1 | 26.1 |  |  |  | 104 | 48.7
COc1cc(/C=C/C=C/C(=O)c2ccccc2)cc(OC)c1O | 42 | 42 |  |  |  | 64.1 | 28.7
COc1ccc(/C=C/C=C/C(=O)c2ccc(OC)cc2)cc1 |  |  |  |  |  | 41.6 | 
O=C(/C=C/C=C/c1ccccc1)c1cc(Cl)cc(Cl)c1O |  |  |  |  |  | 19.6 | 
CN(C)c1ccc(/C=C/C=C/C(=O)c2cccs2)cc1 |  |  |  |  |  | 32.4 | 
COc1ccc(/C=C/C=C/C(=O)c2ccc(OC)cc2OC)cc1 |  |  |  |  |  | < 10 | 
Cc1cc(C(=O)/C=C/C=C/c2ccccc2)c(C)o1 | 59 | 58.9 |  |  |  | 84.6 | > 100
O=C(/C=C/C=C/c1ccccc1)c1cc(Br)ccc1O |  |  |  |  |  | < 10 | 
COc1ccc(/C=C/C=C/C(=O)c2ccc(F)cc2)cc1 |  |  |  |  |  | 40 | 
O=C(/C=C/C=C/c1ccc(Cl)cc1)c1ccc(Cl)cc1 |  |  |  |  |  | 31.2 | 
COc1ccc(/C=C/C=C/C(=O)c2ccc(C)s2)cc1 |  |  |  |  |  | 41.7 | 
COc1ccc(/C=C/C=C/C(=O)c2cc(C)sc2C)cc1 |  |  |  |  |  | 44.8 | 
Cc1ccc(/C=C/C=C/C(=O)c2ccccc2)cc1 |  |  |  |  |  | 73.7 | 
COc1ccc(/C=C/C=C/C(=O)c2cc(Cl)cc(Cl)c2O)cc1 |  |  |  |  |  | < 10 | 
CN(C)c1ccc(/C=C/C=C/C(=O)c2ccccc2O)cc1 |  |  |  |  |  | 16.4 | 
COc1ccc(/C=C/C=C/C(=O)c2ccc(C)cc2)cc1 |  |  |  |  |  | 42.2 | 
O=C(/C=C/C=C/c1ccccc1)c1ccc(Cl)cc1 |  |  |  |  |  | < 10 | 
COc1cc(/C=C/C(=O)CC(=O)/C=C/c2ccc(O)c(OC)c2)ccc1O [CURCUMIN] |  |  | Stable | Stable | Unstable | 99.3 | > 100

More lines, main results first:

IC50 (RAW264.7 [3]; read-out: IC50) [µM] | IC50 (RAW264.7 [3]; read-out: pIC50 (converted)) [µM] | Stability [4] | Stability [5] | Stability [6] | Compound | inhibition at 50 µM (RAW264.7 [1]) [%] | IC50 (RAW264.7 [2]) [µM]
57.4 | 57.4 |  |  |  | COc1ccc(/C=C/C=C/C(=O)c2ccc[nH]2)cc1 | 95.8 | > 100
47.9 | 47.9 |  |  |  | COc1ccc(/C=C/C=C/C(=O)c2cccs2)cc1 | 69.6 | 68.5
21.8 | 21.8 |  |  |  | COc1ccc(/C=C/C=C/C(=O)c2ccc(O)cc2F)cc1 | 102 | 60.3
71.2 | 71.1 |  |  |  | COc1ccc(C(=O)/C=C/C=C/c2ccccc2)cc1 | 51.1 | > 100
16.3 | 16.3 |  |  |  | COc1ccc(/C=C/C=C/C(=O)c2ccc(OC)c(O)c2)cc1 | 100 | 28.4
63.8 | 63.8 |  |  |  | CN(C)c1ccc(/C=C/C=C/C(=O)c2ccc(F)cc2)cc1 | 71.5 | > 100
14.8 | 14.8 |  |  |  | O=C(/C=C/C=C/c1ccc(O)cc1)c1ccc(F)cc1 | 110 | 45.5
77.4 | 77.4 |  |  |  | COc1ccc(C(=O)/C=C/C=C/c2ccc(N(C)C)cc2)cc1 | 54.5 | > 100
27.1 | 27.1 |  |  |  | COc1ccc(C(=O)/C=C/C=C/c2ccc(O)cc2)c(O)c1 | 93.4 | > 100
23.5 | 23.4 |  |  |  | COc1ccc(/C=C/C=C/C(=O)c2ccc(O)c(Cl)c2)cc1 | 98.2 | 67.6
16.4 | 16.4 |  |  |  | O=C(/C=C/C=C/c1ccc(O)cc1)c1ccc(O)cc1 | 102 | > 100
39.8 | 45.7 |  |  |  | COc1ccc(/C=C/C=C/C(=O)c2cc(C)oc2C)cc1 | 59.7 | > 100
68.6 | 68.5 |  |  |  | Cc1ccc(C(=O)/C=C/C=C/c2ccccc2)s1 | 52.6 | > 100
45.8 | 45.8 |  |  |  | COc1ccc(/C=C/C=C/C(=O)c2ccccc2)cc1 | 77.4 | > 100
70.5 | 70.5 |  |  |  | COc1ccc(C(=O)/C=C/C=C/c2ccc(Cl)cc2)cc1 | 45.4 | 80.2
27.5 | 27.5 |  |  |  | COc1ccc(/C=C/C=C/C(=O)c2ccco2)cc1 | 61.5 | 76.6
21.5 | 21.4 |  |  |  | COc1ccc(/C=C/C=C/C(=O)c2cc(OC)c(O)c(OC)c2)cc1 | 89.4 | 58.6
116 |  |  |  |  | CN(C)c1ccc(/C=C/C=C/C(=O)c2ccco2)cc1 | 56.9 | > 100
73.6 | 73.5 |  |  |  | CN(C)c1ccc(/C=C/C=C/C(=O)c2ccccc2)cc1 | 51.2 | > 100
27.2 | 27.2 |  |  |  | O=C(/C=C/C=C/c1ccc(O)cc1)c1ccc(O)cc1O | 82.1 | > 100
10.2 | 10.2 | Stable | Stable | Stable | Cc1ccc(C(=O)/C=C/C=C/c2ccc(O)cc2)s1 | 103 | 28.3
